Experimental data reported in PMC10336775 (Proteins, 2022).

Target: afRubisco (Archaeoglobus fulgidus, UniProt O28635)
Assay: coupled NADH assay of 3PGA formed
Assay type: biochemical
Details: 2 mM RuBp, 10 mM NaHCO3, 20 mM MgCl2, pH 8.2, 65 C; carboxylase activity

Chain of afRubisco (O28635 whole entry): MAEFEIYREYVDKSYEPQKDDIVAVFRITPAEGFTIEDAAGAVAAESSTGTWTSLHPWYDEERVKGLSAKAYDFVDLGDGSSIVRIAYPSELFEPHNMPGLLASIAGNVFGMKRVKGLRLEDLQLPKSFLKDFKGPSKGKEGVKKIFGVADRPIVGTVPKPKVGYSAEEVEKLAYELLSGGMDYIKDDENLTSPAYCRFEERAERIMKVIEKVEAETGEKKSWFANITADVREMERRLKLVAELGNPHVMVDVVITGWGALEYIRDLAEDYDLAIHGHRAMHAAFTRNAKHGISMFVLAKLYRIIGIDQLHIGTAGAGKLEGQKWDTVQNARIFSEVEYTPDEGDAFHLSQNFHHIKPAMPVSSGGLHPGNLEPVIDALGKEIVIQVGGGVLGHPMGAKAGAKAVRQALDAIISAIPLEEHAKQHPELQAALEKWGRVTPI

Q: `O=C(COP(=O)(O)O)[C@H](O)[C@H](O)COP(=O)(O)O` [RuBp] was tested. Which “coupled NADH assay of 3PGA formed (340 nm)” value did it give?
A: Its value is “Activated afRubisco has very low carboxylase activity at room temperature but has much higher”.
